In experiment [1] the test system is HUVEC cell. The experiment can be described thus: Cell Proliferation Inhibition VEGF-R2 Assay (SRB method). The class given is cell-based, homo sapient. The conditions noted are these: Homo sapiens; HUVEC cells, 72 hours exposure, Sulforhodamine B; read-out: IC50 (VEGFR/HUVEC). An excerpt:
The following in vitro assay may be used to determine the level of activity and effect of different compounds of the present invention on the proliferation inhibition (cell toxic) of endothelium growth factor receptor (VEGFR) high expressing homo […] cancer cell-HUVEC cell. The cellular assay described here measure the compounds of their anti-angiogenesis and proliferation inhibition activity and effect through […] on the cancer cells in vitro. The effect and activity is represented by the IC50 value that kills the cancer cell. […] The homo […] highly express […] are chosen and seeded to 96-well cell culture plate at a suitable concentration (exp 5000 cells/ml medium). The cells then are cultured in carbon dioxide (CO2) incubator till when they confluence to about 85%. Then, the cell culture medium is replaced by fresh one with tested compounds added in it at serial concentrations (general 6 to 7 concentrations). Then the cells are put back to the culture and cultured for continuous 72 hours. 72 hours later, the cell exposed to compounds and control cell are assayed for their proliferation using Sulforhodamine B (SRB) method. […] Dimethyl sulfoxide (Sinophma chemical reagent company, catalog No. T20050806) • b. HUVEC cells (Purchased from Institute of biochemistry and cell biology) • c. […] Acetic Acid (Sinophma chemical reagent company, Catalog No. T20060508) • l. Trichloroacetic Acid (Sinophma chemical reagent company, Catalog No. T20060305) • m. […] Class II A/B3 Biological safety cabinet (ThermoForma Catalog No. HB0053-03) • o. […] Centrifuge (Fisher Scientific Marathon 8 k, Catalog No. 0027-02) • q. Novastar Plate reader (BMG Labtech, Catalog No. 700-0081) • r. […] Growing seeded 96-well plates at 37° C., 5% CO2, till 85% confluence. • 4. Prepare compounds stock solution, using DMSO solve candidate compounds to a concentration of 20 mM. […] Use cell culture medium (in this case, DMEM/F12+10% FBS) to dilute the compounds solution prepared above. Each DMSO serial concentration compound solution is diluted by 20 times with culture medium by adding 5 μl DMSO compound solution to 95 μl culture medium, then mix well by vortex. […] After HUVEC cell has attached to the dish bottom and confluence about 85%, change the culture medium with fresh DMEM/F12 plus 10% FBS. Each well added 180 μl medium, then add 20 μl medium solution of tested compounds prepared at step 5 to each well. For control group cell, add 20 μl culture medium containing 0.5% pure DMSO. […] Each 96-well plate, we can test 3 compounds with a control cell group. • 7. Put the culture plates back to incubator, culture for 72 hours at 37° C., 5% CO2. • 8. 72 hours later, remove cultures from incubator into sterile work area. • 9. Prepare fixative (50% Trichloroacetic Acid-TCA) by adding reagent grade water to the TCA, fix the cells by gently layering 50 μl of cold TCA solution on top of the growth medium. • 10. Incubate plates for 1 hour at 4° C. and then rinse with water several times to remove TCA, serum proteins, etc. Plates are air dried and stored until use. Bland background optical density is measured in wells incubated with growth medium without cells. • 11. Use 10% acetic acid solution to prepare 0.4% Sulforhodamine B solution. Add 50 μl sulforhodamine B solution to each well of 96-well plates. • 12. Allow cells to stain for 30 minutes. • 13. Prepared the wash solution of […] acetic acid. At the end of the staining period, the stain is removed and the cells rinsed quickly with 1% acetic acid. Repeat until unincorporated dye is removed. Keep wash times to a minimum to reduce desorption of protein-bound dye. After being rinsed, the cultures are air dried until no moisture is visible. • 14. The incorporated dye is then solubilized in a volume of Sulforhodamine B assay Solubilization solution (10 mM Tris) equal to the original volume of culture medium. Allow cultures to stand for 5 minutes at room temperature.

In experiment [2] the test system is A431 cell. Put plainly: Cell Proliferation Inhibition EGFR Assay (SRB method). The settings on record: Homo sapiens, A-431; A431 cells, 72 hours exposure, Sulforhodamine B; read-out: IC50 (A431). In kind it is cell-based, homo sapient. An excerpt:
The following in vitro assay may be used to determine the level of activity and effect of different compounds of the present invention on the proliferation inhibition (cell toxic) of […] growth factor receptor (EGFR) high expressing homo […] cancer cell-A431 cell. The cellular assay described here measure the compounds of their anti-angiogenesis and proliferation inhibition activity and effect through EGFR on the cancer cells in vitro. The effect and activity is represented by the IC50 value that kills the cancer cell. […] The homo […] highly express EGFR are chosen and seeded to 96-well cell culture plate at a suitable concentration (exp 5000 cells/ml medium). The cells then are cultured in carbon dioxide (CO2) incubator till when they confluence to about 85%. Then, the cell culture medium is replaced by fresh one with tested compounds added in it at serial concentrations (general 6 to 7 concentrations). Then the cells are put back to the culture and cultured for continuous 72 hours. 72 hours later, the cell exposed to compounds and control cell are assayed for their proliferation using Sulforhodamine B (SRB) method. Compounds IC50 on tested cells are calculated by the data of inhibition rates of serial concentrations of the tested compounds. • a. Dimethyl sulfoxide (Sinophma chemical reagent company, catalog No. T20050806) • b. A431 cells (Purchased from Institute of biochemistry and cell biology) • c. Falcon 100 mm cell culture plates (Baton Dickison Labware, Baton Dickison and company, • Catalog No. 18677) • d. coming 96-well culture cluster (Corning Incorporated, Catalog No. 3599) • e. Fisher Pipette (Fisher scientific, Catalog No. 03-692-164) • f. DMEM/F12 cell medium (Gibco, Catalog No. 12400-024) • g. Fetal bovine serum, origin from Australia (Gibco, Catalog No. 10099-141) • h. […] Sulforhodamine B (Sigma, Catalog No. 3520-42-1) • k. Acetic Acid (Sinophma chemical reagent company, Catalog No. T20060508) • l. Trichloroacetic Acid (Sinophma chemical reagent company, Catalog No. T20060305) • m. Tris base (Amresco, Catalog No. 0826) • n. Class II A/B3 Biological safety cabinet (ThermoForma Catalog No. HB0053 03) • o. Series II water jacketed CO2 incubator (ThermoForma Model: 3111) • p. Centrifuge (Fisher Scientific Marathon 8 k, Catalog No. 0027-02) • q. Novastar Plate reader (BMG Labtech, Catalog No. 700 0081) • r. Orbital Shaker (Qilinbeier, Catalog No. TS-1) Protocol: […] Growing seeded 96-well plates at 37° C., 5% CO2, till 85% confluence. • 4. Prepare compounds stock solution, using DMSO solve candidate compounds to a concentration of 20 mM. […] Use cell culture medium (in this case, DMEM/F12+10% FBS) to dilute the compounds solution prepared above. Each DMSO serial concentration compound solution is diluted by 20 times with culture medium by adding 5 μl DMSO compound solution to 95 μl culture medium, then mix well by vortex. This promise that the DMSO concentration at that the A431 cell will exposed to will not surpass 0.5%. • 6. […] Each well added 180 μl medium, then add 20 μl medium solution of tested compounds prepared at step 5 to each well. For control group cell, add 20 μl culture medium containing 0.5% pure DMSO. […] Each 96-well plate, we can test 3 compounds with a control cell group. • 7. Put the culture plates back to incubator, culture for 72 hours at 37° C., 5% CO2. • 8. 72 hours later, remove cultures from incubator into sterile work area. • 9. Prepare fixative (50% Trichloroacetic Acid-TCA) by adding reagent grade water to the TCA, fix the cells by gently layering […] of cold TCA solution on top of the growth medium. • 10. Incubate plates for 1 hour at 4° C. and then rinse with water several times to remove TCA, serum proteins, etc. Plates are air dried and stored until use. Bland background optical density is measured in wells incubated with growth medium without cells. • 11. Use 10% acetic acid solution to prepare 0.4% Sulforhodamine B solution. Add 50 μl sulforhodamine B solution to each well of 96-well plates. • 12. […]

Molecules are shown by their SMILES. pIC50: −log10 of the molar value.

Take `CCN(CC)CCN1CCc2[nH]c(/C=C3\C(=O)Nc4c(NC=O)cc(F)cc43)c(C)c2C1=O` [Example 5, N-{3-[5-(2-Diethylamino-ethyl)-3-methyl-4-oxo-4,5,6,7-tetrahydro-1H-pyrrolo[3,2-c]pyridine-2-ylmethylene]-5-fluoro-2-oxo-2,3-dihydro-1H-indol-7-yl}-formamide]: the pIC50 in experiment [1] is 4.98; in experiment [2], 5.86.

In the case of `CCN(CC)CCN1CCc2[nH]c(/C=C3\C(=O)Nc4ccc(-c5ccc(OC)cc5)cc43)c(C)c2C1=O` [Example 38, 5-(2-Diethylamino-ethyl)-2-[5-(4-methoxy-phenyl)-2-oxo-1,2-dihydro-indol-3-ylidenemethyl)-3-methyl-1,5,6,7-tetrahydro-pyrrolo[3,2-c]pyridin-4-one], the pIC50 is 5.89 in experiment [1] and 5.41 in experiment [2].

Take `CCN(CC)CCN1CCc2[nH]c(/C=C3\C(=O)Nc4cc(NC=O)c(F)cc43)c(C)c2C1=O` [Example 8, N-{3-[5-(2-Diethylamino-ethyl)-3-methyl-4-oxo-4,5,6,7-tetrahydro-1H-pyrrolo[3,2-c]pyridine-2-ylmethylene]-5-fluoro-2-oxo-2,3-dihydro-1,1-indol-6-yl}-formamide]: the results for the pIC50 in experiment [1] and in experiment [2] were 5.50 and 6.43, respectively.

Take `CCN(CC)CCN1CCc2[nH]c(/C=C3\C(=O)Nc4cc(N)c(F)cc43)c(C)c2C1=O` [Example 7, 2-(6-Amino-5-fluoro-2-oxo-1,2-dihydro-indol-3-ylidenemethyl)-5-(2-diethylamino-ethyl)-3-methyl-1,5,6,7-tetrahydro-pyrrolo[3,2-c]pyridin-4-one]: the pIC50 in experiment [1] was 5.86; in experiment [2], 4.98.

Take `CCN(CC)CCN1CCc2[nH]c(/C=C3\C(=O)Nc4c(N)cc(F)cc43)c(C)c2C1=O` [Example 4]: the pIC50 in experiment [1] was 5.44; in experiment [2] it was 4.90.

For `CCN(CC)CCN1CCc2[nH]c(/C=C3\C(=O)Nc4ccc(NC=O)cc43)c(C)c2C1=O` [Example 33, N-{3-[5-(2-Diethylamino-ethyl)-3-methyl-4-oxo-4,5,6,7-tetrahydro-1H-pyrrolo[3,2-c]pyridine-2-ylmethylene]-2-oxo-2,3-dihydro-1H-indol-5-yl}-formamide], the pIC50 in experiment [1] is 6.17; in experiment [2] it was 6.08.

On to `CCN(CC)CCN1CCc2[nH]c(/C=C3\C(=O)Nc4cc(NC(C)=O)c(F)cc43)c(C)c2C1=O` [Example 9, N-{3-[5-(2-Diethylamino-ethyl)-3-methyl-4-oxo-4,5,6,7-tetrahydro-pyrrolo[3,2-c]pyridine-2-ylmethylene]-5-fluoro-2-oxo-2,3-dihydro-1H-indol-6-yl}-acetamide], for which the pIC50 was 5.24 in experiment [1] and 5.03 in experiment [2].

Take `Cc1c(/C=C2\C(=O)Nc3cc(N)c(F)cc32)[nH]c2c1C(=O)N(CCN1CCCC1)CC2` [Example 14, 2-(6-Amino-5-fluoro-2-oxo-1,2-dihydro-indol-3-ylidenemethyl)-3-methyl-5-(2-pyrrolidin-1-yl-ethyl)-1,5,6,7-tetrahydro-pyrrolo[3,2-c]pyridin-4-one]: the pIC50 in experiment [1] was 5.98; in experiment [2] it was 4.97.

For the origin of these results see patent US8697692B2, “Pyrrolo [3,2-c] pyridine-4-one 2-indolinone protein kinase inhibitors” (Shanghai Hengrui Pharmaceutical Co., Ltd., priority 2006, dated 2014).
